The record followed here is ChEMBL document CHEMBL4627384, “l-Thyroxin and the Nonclassical Thyroid Hormone TETRAC Are Potent Activators of PPARγ” (J Med Chem, 2020).

For series [1], the target named is T1, Peroxisome proliferator-activated receptor gamma (Homo sapiens) (UniProt P37231).
T1 sequence (whole entry): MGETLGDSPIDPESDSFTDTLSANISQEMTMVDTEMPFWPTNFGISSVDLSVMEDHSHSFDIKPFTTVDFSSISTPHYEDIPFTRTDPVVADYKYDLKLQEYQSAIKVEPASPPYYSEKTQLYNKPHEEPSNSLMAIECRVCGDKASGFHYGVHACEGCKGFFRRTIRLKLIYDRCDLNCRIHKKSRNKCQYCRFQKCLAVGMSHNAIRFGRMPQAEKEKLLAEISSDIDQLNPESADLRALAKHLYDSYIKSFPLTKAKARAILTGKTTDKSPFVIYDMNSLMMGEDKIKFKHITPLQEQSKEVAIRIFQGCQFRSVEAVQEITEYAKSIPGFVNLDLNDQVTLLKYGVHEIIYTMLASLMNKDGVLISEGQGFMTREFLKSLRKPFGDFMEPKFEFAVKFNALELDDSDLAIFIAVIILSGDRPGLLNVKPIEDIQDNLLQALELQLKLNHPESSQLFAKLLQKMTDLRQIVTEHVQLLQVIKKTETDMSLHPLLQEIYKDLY
The series is described as follows: Agonist activity at PPARgamma in human HepG2 cells assessed as induction of CD36 mRNA expression at 10 to 30 uM incubated for 8 hrs by qPCR analysis. In kind it is cell-based.

In series [2] the target is T1, Peroxisome proliferator-activated receptor gamma (Homo sapiens). As to the kind of experiment: Agonist activity at PPARgamma in human HepG2 cells assessed as induction of CD36 mRNA expression at 30 uM incubated for 8 hrs in presence of PPARgamma antagonist GW9662 by qPCR analysis. Format: cell-based. A general note: In qPCR the cycle at which signal appears reflects the starting amount.

The nature of series [3]: Drug level in human serum by RIA. In kind it is ADME, cell-free. Particulars: read-out: Drug uptake.
Another series is filed under the species Homo sapiens. The series is described as follows: Agonist activity at PPARgamma LBD (unknown origin)/GFP-tagged RXRalpha mutant (unknown origin) assessed as biotin-labeled CBP recruitment to […]:RXRalpha mutant fusion protein heterodimer incubated for 2 hrs by HT-FRET assay.
Series [4] concerns the target T2, Peroxisome proliferator-activated receptor gamma (Mus musculus) (UniProt P37238).
T2 sequence (whole entry): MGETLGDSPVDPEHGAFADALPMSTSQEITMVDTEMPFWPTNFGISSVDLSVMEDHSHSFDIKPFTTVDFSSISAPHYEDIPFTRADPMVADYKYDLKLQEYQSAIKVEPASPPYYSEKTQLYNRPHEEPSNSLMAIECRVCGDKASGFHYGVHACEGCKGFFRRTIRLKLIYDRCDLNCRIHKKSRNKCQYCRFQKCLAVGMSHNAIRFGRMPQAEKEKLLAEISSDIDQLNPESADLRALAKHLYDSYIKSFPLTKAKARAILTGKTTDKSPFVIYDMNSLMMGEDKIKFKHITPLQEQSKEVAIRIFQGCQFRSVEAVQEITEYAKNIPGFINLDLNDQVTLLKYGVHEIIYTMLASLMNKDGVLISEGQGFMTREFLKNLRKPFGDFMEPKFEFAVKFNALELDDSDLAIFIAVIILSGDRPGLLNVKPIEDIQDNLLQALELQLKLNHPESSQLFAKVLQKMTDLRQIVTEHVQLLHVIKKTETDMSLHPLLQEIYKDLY
The series is described as follows: Agonist activity at PPARgamma in mouse 3T3L1 adipocytes assessed as induction of LPL mRNA expression at 1 uM by qRT-PCR analysis. The note with it: 3T3-L1. Format: cell-based.

Series [5] addresses T3, Thyroid hormone receptor beta (Homo sapiens, UniProt P10828).
T3 sequence (P10828 whole entry): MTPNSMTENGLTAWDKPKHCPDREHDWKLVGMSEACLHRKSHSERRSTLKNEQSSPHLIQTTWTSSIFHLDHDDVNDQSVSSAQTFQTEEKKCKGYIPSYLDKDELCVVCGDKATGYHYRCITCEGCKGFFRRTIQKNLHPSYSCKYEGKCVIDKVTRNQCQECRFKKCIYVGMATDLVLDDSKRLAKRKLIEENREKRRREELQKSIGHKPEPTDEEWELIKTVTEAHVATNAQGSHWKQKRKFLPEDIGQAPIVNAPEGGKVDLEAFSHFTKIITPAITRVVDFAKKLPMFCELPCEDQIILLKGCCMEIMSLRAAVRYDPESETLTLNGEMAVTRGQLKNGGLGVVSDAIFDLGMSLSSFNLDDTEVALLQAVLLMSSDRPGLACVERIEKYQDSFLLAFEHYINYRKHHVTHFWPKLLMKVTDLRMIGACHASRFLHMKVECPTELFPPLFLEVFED
The series is described as follows: Agonist activity at THRbeta (unknown origin) incubated for 14 to 16 hrs by dual glo luciferase reporter gene assay. For orientation: In a reporter assay the amount or activity of a reporter protein is the signal.

Series [6] addresses T4, Hepatocyte nuclear factor 4-alpha (Homo sapiens) (UniProt P41235).
T4 sequence (whole entry): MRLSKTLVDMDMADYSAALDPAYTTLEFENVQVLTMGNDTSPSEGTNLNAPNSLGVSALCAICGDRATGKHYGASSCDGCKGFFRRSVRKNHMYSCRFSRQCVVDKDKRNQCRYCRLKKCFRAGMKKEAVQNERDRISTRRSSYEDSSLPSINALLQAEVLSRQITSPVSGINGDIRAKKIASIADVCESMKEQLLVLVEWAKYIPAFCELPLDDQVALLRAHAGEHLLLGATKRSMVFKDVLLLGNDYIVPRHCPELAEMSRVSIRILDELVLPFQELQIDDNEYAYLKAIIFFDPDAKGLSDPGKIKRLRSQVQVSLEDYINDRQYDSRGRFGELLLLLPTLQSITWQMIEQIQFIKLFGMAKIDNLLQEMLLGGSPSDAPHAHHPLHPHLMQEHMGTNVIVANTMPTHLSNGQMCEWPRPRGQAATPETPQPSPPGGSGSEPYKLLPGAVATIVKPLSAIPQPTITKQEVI
The series is described as follows: Agonist activity at recombinant human pFA-CMV-fused HNF4alpha LBD expressed in HEK293T cells transfected with pFR-luciferase plasmid and pRL-SV40 plasmid at 1 uM incubated for 14 to 16 hrs by dual glo luciferase reporter gene assay. The note with it: HEK-293T. In kind it is cell-based.

The test system of a further series is HEK-293T. As to the kind of experiment: Activation of renilla luciferase expressed in HEK293T cells at 0.1 uM incubated for 14 to 16 hrs by reporter gene assay. In kind it is cell-based. The note with it: Renilla reniformis.
Series [7] deals with T2, Peroxisome proliferator-activated receptor gamma (Mus musculus). The series is described as follows: Agonist activity at PPARgamma in mouse 3T3L1 adipocytes assessed as induction of FABP4 mRNA expression at 1 uM by qRT-PCR analysis. Format: cell-based. Particulars: 3T3-L1.
Series [8] has the same target. As to the kind of experiment: Agonist activity at PPARgamma in mouse 3T3L1 adipocytes assessed as induction of adiponectin mRNA expression at 1 uM by qRT-PCR analysis. In kind it is cell-based. Particulars: 3T3-L1.

Active and inactive are the calls of the source. No cut-off for these calls is given here.

As a reminder, the EC50 is the concentration giving half of the maximal effect. A low value points to a more potent agent.

For the compound `N[C@@H](Cc1cc(I)c(Oc2cc(I)c(O)c(I)c2)c(I)c1)C(=O)O` [LEVOTHYROXINE], the outcome in series [1] was Active. Further, in series [2], the result was inactive.

Regarding `O=C(O)Cc1cc(I)c(Oc2cc(I)c(O)c(I)c2)c(I)c1` [TETRAC], the concentration in series [3] turned out to be 1.6 nM. Moreover, the result (in the series filed under Homo sapiens; in series [4]; in series [6]; in [7]; in series [8]) was Active. Moreover, the midpoint of the response in series [5], the EC50, lay at 20 nM. For the same compound, the outcome with HEK-293T was inactive.
